ChEMBL document CHEMBL1122604, “(E)-2-(3,4-dimethoxyphenyl)-3-fluoroallylamine: a selective, enzyme-activated inhibitor of type B monoamine oxidase” (J Med Chem, 1984)
Several values for one entry are separate records, joined by “and”; a condition that tells them apart may be missing. Identical values can stand only once.

Assays:
[1] = The minimum half-life at apparent dissociation concentration of 40 uM at 10 degrees Centigrade.; format: ADME
[2] = The minimum half-life at saturation concentration of 130 uM at 10 degrees Centigrade.; format: ADME; conditions: read-out: T50
Rattus norvegicus = species on record: Rattus norvegicus; assay: Compound was evaluated for apparent kinetic dissociation (Ki) using Kitz and Wilson method.; format: functional, organism-based
[3] = molecular target: T1, Amine oxidase [flavin-containing] B (Rattus norvegicus, UniProt P19643); assay: Inhibition of monoamine oxidase (MAO) type B by administering the compound perorally at a dose level of 0.5 mg/(kg day).; format: functional; conditions: po
T1 sequence (P19643 whole entry): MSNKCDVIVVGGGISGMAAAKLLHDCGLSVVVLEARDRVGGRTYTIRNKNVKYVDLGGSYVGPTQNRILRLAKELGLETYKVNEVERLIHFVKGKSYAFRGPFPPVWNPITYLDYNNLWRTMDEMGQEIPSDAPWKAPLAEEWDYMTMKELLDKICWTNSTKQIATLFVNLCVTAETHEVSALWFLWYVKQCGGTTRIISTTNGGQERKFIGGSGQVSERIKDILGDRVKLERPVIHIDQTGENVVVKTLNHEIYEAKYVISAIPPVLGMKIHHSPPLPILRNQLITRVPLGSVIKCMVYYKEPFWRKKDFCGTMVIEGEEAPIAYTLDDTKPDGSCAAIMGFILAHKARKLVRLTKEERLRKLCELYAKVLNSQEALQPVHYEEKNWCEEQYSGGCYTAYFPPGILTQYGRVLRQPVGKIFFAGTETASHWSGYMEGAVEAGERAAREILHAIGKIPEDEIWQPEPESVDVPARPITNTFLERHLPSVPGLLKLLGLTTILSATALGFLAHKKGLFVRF

[4] = molecular target: T2, Amine oxidase [flavin-containing] A (Rattus norvegicus, UniProt P21396); assay: Inhibition of monoamine oxidase (MAO) type A by administering the compound perorally at a dose level of 2.5 mg/(kg day).; format: functional; conditions: po
T2 sequence (P21396 whole entry): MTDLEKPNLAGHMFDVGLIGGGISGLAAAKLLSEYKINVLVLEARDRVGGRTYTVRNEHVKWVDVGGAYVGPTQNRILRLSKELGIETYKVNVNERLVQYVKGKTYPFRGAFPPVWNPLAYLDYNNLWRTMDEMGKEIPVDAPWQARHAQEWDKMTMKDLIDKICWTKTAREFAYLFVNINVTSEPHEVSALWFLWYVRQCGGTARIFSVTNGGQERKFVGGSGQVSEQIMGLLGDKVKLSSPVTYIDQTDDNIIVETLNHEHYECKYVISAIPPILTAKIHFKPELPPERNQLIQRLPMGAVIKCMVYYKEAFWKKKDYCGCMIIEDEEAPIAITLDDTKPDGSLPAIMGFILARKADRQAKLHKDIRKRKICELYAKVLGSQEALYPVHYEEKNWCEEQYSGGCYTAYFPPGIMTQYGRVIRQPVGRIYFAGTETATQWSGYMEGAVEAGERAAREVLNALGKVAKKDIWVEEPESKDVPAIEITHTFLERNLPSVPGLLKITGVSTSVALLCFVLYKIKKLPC

[5] = molecular target: T2, Amine oxidase [flavin-containing] A; assay: Inhibition of monoamine oxidase (MAO) type A by administering the compound perorally at a dose level of 0.5 mg/(kg day).; format: functional; conditions: po

T50 [1]: 1.7 min
half-life at 130 µM [2]: 14.5 min
Ki (Rattus norvegicus): 40 µM and 130 µM
Inhibition [3]: > 85%
Inhibition [4]: 50%
Inhibition [5]: < 15%
SMILES: COc1ccc(/C(=C\F)CN)cc1OC.Cl
